How the values were obtained:
K^+V channel = assay: Binding assay, [125I]α-dendrotoxin
[1] = target: T1, human AMPA receptor GluA4o/2o (Homo sapiens, UniProt P42262+P48058, A778Q/D799G/G801D/K798G/P767A/P797S/Q607R/S776N/S800G/T766N/V780L); assay: Glutamate-evoked currents, oocytes expressing recombinant human AMPA receptors; type: cell-based
T1 construct: host or cells: Xenopus laevis oocytes
Experimental: (§1) Compounds were tested by bath application.

[2] = system: human AMPA receptor GluA1o (GluA1 flop); assay: as above; type: cell-based; conditions: S 47445 100 μM
Experimental: as §1

[3] = target: T2, human AMPA receptor GluA4o (GluA4 flop) (Homo sapiens, UniProt P48058, A778Q/D799G/G801D/K798G/P767A/P797S/S776N/S800G/T766N/V780L); assay: as above; type: cell-based
T2 construct: host or cells: Xenopus laevis oocytes
T2 sequence (P48058 21-902 T766N/P767A/S776N/A778Q/V780L/P797S/K798G/D799G/S800G/G801D): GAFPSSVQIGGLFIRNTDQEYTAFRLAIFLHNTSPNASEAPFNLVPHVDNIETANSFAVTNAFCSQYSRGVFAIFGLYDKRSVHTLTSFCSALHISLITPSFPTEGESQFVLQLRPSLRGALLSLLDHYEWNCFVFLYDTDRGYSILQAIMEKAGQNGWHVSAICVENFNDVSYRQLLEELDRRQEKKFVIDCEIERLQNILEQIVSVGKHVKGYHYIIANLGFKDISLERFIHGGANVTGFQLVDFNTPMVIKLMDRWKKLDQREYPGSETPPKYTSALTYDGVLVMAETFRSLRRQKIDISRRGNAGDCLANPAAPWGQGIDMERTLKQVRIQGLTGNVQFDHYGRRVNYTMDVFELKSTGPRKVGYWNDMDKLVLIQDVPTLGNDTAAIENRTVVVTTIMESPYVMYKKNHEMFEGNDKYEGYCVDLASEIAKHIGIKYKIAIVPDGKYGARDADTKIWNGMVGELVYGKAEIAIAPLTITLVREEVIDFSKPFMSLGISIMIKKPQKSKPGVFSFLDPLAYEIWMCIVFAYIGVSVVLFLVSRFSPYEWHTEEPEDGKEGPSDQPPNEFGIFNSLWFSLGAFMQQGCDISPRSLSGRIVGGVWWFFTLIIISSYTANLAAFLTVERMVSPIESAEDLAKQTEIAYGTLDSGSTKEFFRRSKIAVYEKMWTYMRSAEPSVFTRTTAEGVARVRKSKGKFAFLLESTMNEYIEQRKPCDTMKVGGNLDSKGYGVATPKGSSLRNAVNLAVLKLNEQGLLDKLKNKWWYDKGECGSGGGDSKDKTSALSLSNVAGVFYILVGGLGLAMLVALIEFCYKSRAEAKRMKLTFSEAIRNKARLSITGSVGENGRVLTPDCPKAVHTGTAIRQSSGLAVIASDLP
Experimental: as §1

[4] = target: T3, human AMPA receptor GluA1i/2i (Homo sapiens, UniProt P42261+P42262, Q607R); assay: as above; type: cell-based
T3 construct: host or cells: Xenopus laevis oocytes
Experimental: as §1

[5] = target: T4, human AMPA receptor GluA4o/2i (Homo sapiens, UniProt P42262+P48058, Q607R); assay: as above; type: cell-based
T4 construct: host or cells: Xenopus laevis oocytes
Experimental: as §1

[6] = target: T5, human AMPA receptor GluA1i/2o (Homo sapiens, UniProt P42261+P42262, Q607R); assay: as above; type: cell-based
T5 construct: host or cells: Xenopus laevis oocytes
Experimental: as §1

[7] = target: T6, human AMPA receptor GluA1o (GluA1 flop) (Homo sapiens, UniProt P42261); assay: as above; type: cell-based
T6 construct: host or cells: Xenopus laevis oocytes
Experimental: as §1

[8] = target: T7, human AMPA receptor GluA4i/2o (Homo sapiens, UniProt P42262+P48058, Q607R); assay: as above; type: cell-based
T7 construct: host or cells: Xenopus laevis oocytes
T7 sequence (P48058 21-902): as the sequence (P48058 21-902 T766N/P767A/S776N/A778Q/V780L/P797S/K798G/D799G/S800G/G801D) above, with N746T, A747P, N756S, Q758A, L760V, S777P, G778K, G779D, G780S, D781G counted along it
T7 sequence (P42262 22-883 Q607R limits assumed): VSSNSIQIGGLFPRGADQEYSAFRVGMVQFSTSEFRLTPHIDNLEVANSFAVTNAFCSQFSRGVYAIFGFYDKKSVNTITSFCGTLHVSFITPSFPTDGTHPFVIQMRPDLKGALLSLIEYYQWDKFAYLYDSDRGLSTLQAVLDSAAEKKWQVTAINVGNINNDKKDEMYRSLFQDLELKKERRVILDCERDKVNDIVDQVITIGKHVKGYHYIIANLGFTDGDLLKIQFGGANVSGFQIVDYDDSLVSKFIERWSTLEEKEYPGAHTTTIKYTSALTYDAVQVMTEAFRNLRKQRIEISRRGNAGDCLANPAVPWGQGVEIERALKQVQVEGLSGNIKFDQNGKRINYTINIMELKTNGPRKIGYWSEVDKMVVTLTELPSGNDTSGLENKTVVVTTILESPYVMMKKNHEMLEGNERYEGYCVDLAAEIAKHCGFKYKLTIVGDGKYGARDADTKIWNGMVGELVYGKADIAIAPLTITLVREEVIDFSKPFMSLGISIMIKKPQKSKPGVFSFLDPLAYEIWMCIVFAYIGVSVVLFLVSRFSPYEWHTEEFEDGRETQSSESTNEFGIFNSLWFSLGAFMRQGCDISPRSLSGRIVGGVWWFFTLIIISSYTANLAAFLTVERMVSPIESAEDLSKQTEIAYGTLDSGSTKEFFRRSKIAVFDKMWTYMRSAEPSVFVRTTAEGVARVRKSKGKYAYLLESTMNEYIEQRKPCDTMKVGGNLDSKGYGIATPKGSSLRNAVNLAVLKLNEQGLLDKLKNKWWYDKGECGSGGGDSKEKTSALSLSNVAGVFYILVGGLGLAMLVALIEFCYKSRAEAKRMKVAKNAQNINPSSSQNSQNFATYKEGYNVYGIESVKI
Experimental: as §1

[9] = target: T8, human AMPA receptor GluA1o/2o (Homo sapiens, UniProt P42261+P42262, Q607R); assay: as above; type: cell-based
T8 construct: host or cells: Xenopus laevis oocytes
Experimental: as §1

[10] = target: T9, human AMPA receptor GluA1o/2i (Homo sapiens, UniProt P42261+P42262, Q607R); assay: as above; type: cell-based
T9 construct: host or cells: Xenopus laevis oocytes
Experimental: as §1

[11] = target: T10, human AMPA receptor GluA4i (GluA4 flip) (Homo sapiens, UniProt P48058); assay: as above; type: cell-based
T10 construct: host or cells: Xenopus laevis oocytes
T10 sequence (P48058 21-902): as the sequence (P48058 21-902 T766N/P767A/S776N/A778Q/V780L/P797S/K798G/D799G/S800G/G801D) above, with N746T, A747P, N756S, Q758A, L760V, S777P, G778K, G779D, G780S, D781G counted along it
Experimental: as §1

[12] = target: T11, human AMPA receptor GluA1i (GluA1 flip) (Homo sapiens, UniProt P42261); assay: as above; type: cell-based
T11 construct: host or cells: Xenopus laevis oocytes
Experimental: as §1

[13] = target: T12, human AMPA receptor GluA4i/2i (Homo sapiens, UniProt P42262+P48058, Q607R); assay: as above; type: cell-based
T12 construct: host or cells: Xenopus laevis oocytes
Experimental: as §1

male C57Bl/6 mice = assay: Spontaneous alternation in a T-maze in mice; type: in vivo, mouse; conditions: 180 s inter-trial delay
Experimental: Novel object recognition and T-maze studies were conducted respectively in male OFA rats (150–175 g, Charles River, Saint-Germain-Nuelles, France) and male C57Bl/6 mice (5.5–6.5 month-old, Charles River, Saint-Germain-Nuelles, France). Animals were housed in collective cages with continuous access to tap water and food on a 12 h light-dark cycle, in a temperature-controlled (21 ± 1°C) and ventilated room. On completion of studies subjects were euthanized by either CO2 inhalation or intraperitoneal (i.p.) lethal pentobarbital injection. The novel object recognition test was used as the primary in vivo screening assay to identify AMPA-PAMs. The T-maze task was performed using a modified continuous performance procedure previously described in mice. […]
Behavioral testing was conducted in a T-shaped maze made of grey Plexiglas using mice. […] Photoelectric cells detected the position of the mouse on the maze. […]
Both alternation performance and latency of entry were assessed. […] The successive sequence of visits for the 7 first trials determined the level of alternation. A percentage of alternation was calculated for each mouse, and corresponded to the number of alternations performed relative to the number maximal of alternation (n = 6). […] The mean latency of entry from trial 2 to trial 7 was calculated for each mouse. […]

EGFR kinase (h) = EGFR kinase (h) (Homo sapiens, UniProt P00533); assay: Enzyme and cell-based assay, ATP + biotinyl peptide (0.1 μM)
Chain of EGFR kinase (h) (P00533 25-1210): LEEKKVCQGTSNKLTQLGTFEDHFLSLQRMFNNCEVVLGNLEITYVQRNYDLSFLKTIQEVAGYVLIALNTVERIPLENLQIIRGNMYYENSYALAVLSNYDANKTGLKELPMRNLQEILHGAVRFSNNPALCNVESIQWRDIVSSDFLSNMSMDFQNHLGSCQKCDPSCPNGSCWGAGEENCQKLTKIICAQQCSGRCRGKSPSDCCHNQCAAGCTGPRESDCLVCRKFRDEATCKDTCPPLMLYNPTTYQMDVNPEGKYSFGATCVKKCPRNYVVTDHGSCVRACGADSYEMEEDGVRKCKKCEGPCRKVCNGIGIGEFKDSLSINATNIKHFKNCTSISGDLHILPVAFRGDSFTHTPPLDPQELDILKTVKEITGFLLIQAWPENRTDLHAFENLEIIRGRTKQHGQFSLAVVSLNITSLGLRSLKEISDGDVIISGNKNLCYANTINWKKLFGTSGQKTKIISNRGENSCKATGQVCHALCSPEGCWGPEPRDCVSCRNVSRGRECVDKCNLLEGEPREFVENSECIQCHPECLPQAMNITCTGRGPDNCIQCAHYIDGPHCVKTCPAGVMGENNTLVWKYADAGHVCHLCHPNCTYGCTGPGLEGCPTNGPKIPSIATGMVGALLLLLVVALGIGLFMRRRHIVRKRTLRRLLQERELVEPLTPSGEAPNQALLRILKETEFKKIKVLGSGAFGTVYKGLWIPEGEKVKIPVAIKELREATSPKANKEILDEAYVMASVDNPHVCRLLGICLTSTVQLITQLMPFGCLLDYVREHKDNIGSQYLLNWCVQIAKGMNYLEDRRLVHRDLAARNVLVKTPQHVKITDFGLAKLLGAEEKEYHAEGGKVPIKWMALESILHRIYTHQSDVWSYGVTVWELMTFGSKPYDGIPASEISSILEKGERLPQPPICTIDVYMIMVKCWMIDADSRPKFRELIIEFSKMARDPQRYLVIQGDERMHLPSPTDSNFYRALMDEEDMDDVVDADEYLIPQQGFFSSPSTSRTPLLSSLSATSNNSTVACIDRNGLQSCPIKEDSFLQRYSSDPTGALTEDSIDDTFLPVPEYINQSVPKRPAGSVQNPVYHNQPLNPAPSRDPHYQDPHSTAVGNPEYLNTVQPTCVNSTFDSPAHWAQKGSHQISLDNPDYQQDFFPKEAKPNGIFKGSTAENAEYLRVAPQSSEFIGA

For O=C1c2cc3nnn(CCc4cccc(F)c4)c(=O)c3cc2OCN1C1CC1 [S 47445, 8-cyclopropyl-3-[2-(3-fluorophenyl)ethyl]-7,8-dihydro-3H-[1,3]oxazino[6,5-g][1,2,3]benzotriazine-4,9-dione], the “% Inhibition of control specific binding” value (K^+V channel; S 47445 1.0E-05 M) was -2%, the “% Inhibition of control specific binding” value (K^+V channel; S 47445 1.0E-07 M) was -6% and the EC50 [1] was 2.9 µM. The “Amplitude of potentiation, flop variants compared to flip variants at GluA1” value [2] was “about 9 fold”, the EC50 [3] was 0.7 µM and the EC50 [4] was 2.6 µM. The EC50 [5] was 3.8 µM, the EC50 [6] was 4.3 µM and the EC50 [7] was 2.5 µM. For the same compound, the EC50 [8] was 3.3 µM, the EC50 [9] was 3.9 µM and the EC50 [10] was 5.4 µM. The EC50 [11] was 3 µM, the EC50 [12] was 5.4 µM and the EC50 [13] was 5.4 µM. For the same compound, the “Spontaneous alternation versus vehicle” value (male C57Bl/6 mice; 0.3 mg/kg i.p. acute, p≤0.05) was “improved the performance of spontaneous alternation”, the “Spontaneous alternation versus vehicle” value (male C57Bl/6 mice; 1 mg/kg i.p. acute, p = 0.07) was “improved the performance of spontaneous alternation” and the “% Inhibition of control specific binding” value (EGFR kinase (h); S 47445 1.0E-05 M) was 0%. The “% Inhibition of control specific binding” value (EGFR kinase (h); S 47445 1.0E-07 M) was -8%.
